Experiments:
[1] = Measurement of siRNA encapsulation (SYBR Gold fluorescence); type: physicochemical; settings: for % Encap.: FVII siRNA; for % encapsulation siRNA FVII: FVII siRNA in LNP
Experimental: The lipid nanoparticles (LNPs) were formed by mixing equal volumes of lipids dissolved in alcohol with siRNA dissolved in a citrate buffer by an impinging jet process. The lipid solution contains a cationic lipid compound of the invention, a helper lipid (cholesterol), an optional neutral lipid (DSPC) and a stealth lipid (S010, S024, S027, or S031) at a concentration of 8-16 mg/mL with a target of 12 mg/mL in an alcohol. The siRNA to total lipid ratio is approximately 0.05 (wt/wt). Where a LNP formulation contains four lipid components, the molar ratios of the lipids ranges from 20 to 70 mole percent for the cationic lipid with a target of 40-60, the mole percent of helper lipid ranges from 20 to 70 with a target of 30 to 50, the mole percent of neutral lipid ranges from 0-30, the mole percent of PEG lipid has a range from 1 to 6 with a target of 2 to 5. The concentration of siRNA solution ranges from 0.7 to 1.0 mg/mL with a target of 0.8 to 0.9 mg/mL in a sodium citrate: sodium chloride buffer pH 4-6, with a target of 4.5-5.5. The LNPs are formed by mixing equal volumes of lipid solution in ethanol with siRNA dissolved in a citrate buffer by an impinging jet process through a mixing device with ID ranging from 0.25 to 2.0 mm at a flow rate from 10 to 640 mL/min. The mixed LNP solution is held at room temperature for 0-24 hrs prior to a dilution step. The solution is then concentrated and diafiltered with suitable buffer by ultrafiltration process using membranes with a MW cutoff from 30 to 500 KD. The final product is sterile filtered and stored at 4° C.
SYBR Gold flourescence reagent is used for the determination of siRNA encapsulation in the DLP's. DLP's with and without triton x-100 are used to determine the free siRNA and total siRNA amounts. DLP's samples with and without triton X-100 were excited at 485 nm and flourescence emission is measured at 530 nm. Encapsulation efficiency is calculated based on the following formula: Encapsulation efficiency: [(free siRNA concentration−total siRNA concentration)/(total siRNA concentration)]×100% Encapsulation Data

[2] = test system: plasma Factor VII enzyme activity; test: Factor VII Activity Assay after IV dosing of formulated Factor VII siRNA in mice; type: in vivo, mouse; settings: 0.03 mpk, CD-1 mice, about 48 hours after injection
Experimental: Female CD-1 mice were received from Harlan Labs and maintained on standard lab chow and water ad libitum. The animals weighed approximately 25 gr at time of dosing. Formulated Factor VII siRNA was administered as a single dose intravenously via the lateral tail vein. Approximately 48 hours after injection, the mice were euthanized by CO2 inhalation followed by exsanguination through the vena cava.
Plasma collected from injected mice was assayed for Factor VII enzyme activity using the Biophen FVII kit from Hyphen Biomedical (catalog number 221304). An assay standard curve was prepared using pooled plasma aliquots from the vehicle control animals. All samples were diluted to fall within the linear range of the standard curve and Factor VII activity relative to control plasma was reported.
Lipid nanoparticles comprising lipid compounds of formula (I) and the FVII siRNA duplex sequence listed above were tested in the Factor VII Activity Assay. The results of this assay are given in Table 3 4 below as a percent knock down of plasma Factor VII enzyme activity at a dose of 0.3 mg/kg and 0.03 mg/kg.

hLeptin = test: Human leptin in mouse plasma (ELISA) after IV tail vein injection of encapsulated leptin mRNA; type: in vivo; settings: 0.4 mpk, C57 mice, @ 24 h
Experimental: Human leptin in mouse plasma was measured by ELISA. Antibodies purchased from the R&D Systems duoset (Cat# DY398E, part#840279 for capture antibody and part#840280 for detection antibody) were reconstituted using PBS and titered, again using PBS. The capture antibody was coated at 4 ug/ml in 30 ul/well on a white Nunc® Maxisorp 384 well plate (Cat#460372). After an overnight incubation at room temperature the capture antibody was aspirated and the plate blocked for 2 hours at room temperature with 90 ul/well of KPL milk blocker (Cat#50-82-00). Once the incubation was completed the plate was aspirated and recombinant standards and samples were added to the plate at 30 ul/well for 2 hours at 37° C. while shaking at 600 rpm. Sample/standard dilutions were made using casein sample diluent. Washing/aspiration 3 times with 100 ul/well followed, using Teknova plate wash solution (Cat# P1192). […] The plate was quickly read using a SpectramaxM5 plate reader with a 50 ms integration time. […]
Before the tail vein injection, mouse body weights were recorded and diet weighted, with mice grouped according to their body weights. […]
On day 0, animals were weighed and sorted according to average body weight. Mice were dosed, and food intake (FI) was recorded, on each of days 1-7 and days 9, 11, and 16.

In the case of CCCCC/C=C\C/C=C\CCCCCCCC(=O)OCC(COC(=O)CCCCCCC/C=C\C/C=C\CCCCC)COC(=O)C1(C)CCN(C)C1 (centres unmarked) [Example 1, (9Z,9′Z,12Z,12′Z)-2-(((1,3-dimethylpyrrolidine-3-carbonyl)oxy)methyl)propane-1,3-diyl bis(octadeca-9,12-dienoate)], the “% Encap.” value [1] is reported as 85.1%, the “% encapsulation siRNA FVII” value [1] is reported as 85.1% and the “FVII knock-down (%) following IV injection of encapsulated siRNA” value [2] is reported as 69%/0.03 mpk. For the same compound, the “Expression of protein following IV injection of encapsulated mRNA: hLeptin” value (hLeptin) was 12.3 ng/mL.
For CCCCC/C=C\C/C=C\CCCCCCCC(=O)OCC(COC(=O)CCC(OCCCCCCCC)OCCCCCCCC)COC(=O)OCCCN(CC)CC (centres unmarked) [Example 13, (9Z,12Z)-3-((4,4-bis(octyloxy)butanoyl)oxy)-2-((((3-(diethylamino)propoxy)carbonyl)oxy)methyl)propyl octadeca-9,12-dienoate], the “% Encap.” value [1] was 88.1%, the “% encapsulation siRNA FVII” value [1] was 88.1% and the “FVII knock-down (%) following IV injection of encapsulated siRNA” value [2] was 97%/0.03 mpk. The “Expression of protein following IV injection of encapsulated mRNA: hLeptin” value (hLeptin) was 3.8 ng/mL.

Reference: patent publication US10059655B2, “Lipids and lipid compositions for the delivery of active agents” (priority 2013, dated 2018)
